Target: T1, LCK KD GST (225-509) (Homo sapiens, UniProt P06239)
T1 construct: LCK KD GST (225-509); GST
Assay: LCK Homogenous Time Resolved Fluorescent (HTRF) kinase assay
Assay type: biochemical

T1 sequence (P06239 225-509): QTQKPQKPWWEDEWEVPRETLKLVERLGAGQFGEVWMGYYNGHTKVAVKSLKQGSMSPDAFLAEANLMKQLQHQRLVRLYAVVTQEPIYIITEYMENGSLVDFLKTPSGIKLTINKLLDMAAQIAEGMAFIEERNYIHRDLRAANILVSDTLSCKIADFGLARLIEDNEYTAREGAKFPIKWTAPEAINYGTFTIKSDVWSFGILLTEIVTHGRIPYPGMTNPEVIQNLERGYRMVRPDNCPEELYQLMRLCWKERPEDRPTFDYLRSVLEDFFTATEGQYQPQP

CNc1nccc(-c2cccnc2Oc2cc(C(=O)Nc3cc(C(C)(C)C)ccc3OC)ccc2C)n1 [N-(5-(1,1-dimethylethyl)-2-(methyloxy)phenyl)-4-methyl-3-((3-(2-(methylamino)-4-pyrimidinyl)-2-pyridinyl)oxy)benzamide]
IC50: < 1 µM

CNc1nccc(-c2cccnc2Oc2ccc(NC(=O)Nc3cc(C(C)(C)C)ccc3OC)cc2C)n1 [N-(5-(1,1-dimethylethyl)-2-(methyloxy)phenyl)-N′-(3-methyl-4-((3-(2-(methylamino)-4-pyrimidinyl)-2-pyridinyl)oxy)phenyl)urea]
IC50: < 1 µM

CNc1ncnc(-c2cccnc2Oc2cc(C(=O)Nc3cc(C(C)(C)C)on3)ccc2C)n1 [N-(5-(1,1-dimethylethyl)-3-isoxazolyl)-4-methyl-3-((3-(4-(methylamino)-1,3,5-triazin-2-yl)-2-pyridinyl)oxy)benzamide]
IC50: < 1 µM

CNc1nccc(-c2cccnc2Oc2ccc(NC(=O)Nc3cc(Cl)ccc3N(C)CCCN(C)C)cc2C)n1 [N-(5-chloro-2-((3-(dimethylamino)propyl)(methyl)amino)phenyl)-N′-(3-methyl-4-((3-(2-(methylamino)-4-pyrimidinyl)-2-pyridinyl)oxy)phenyl)urea]
IC50: < 1 µM

CNc1nccc(-c2cccnc2Oc2ccc(NC(=O)Nc3cc(Cl)ccc3N(C)[C@@H]3CCN(C)C3)cc2C)n1 [N-(5-chloro-2-(methyl((3R)-1-methyl-3-pyrrolidinyl)amino)phenyl)-N′-(3-methyl-4-((3-(2-(methylamino)-4-pyrimidinyl)-2-pyridinyl)oxy)phenyl)urea]
IC50: < 1 µM

CNc1nccc(-c2cccnc2Oc2ccc(NC(=O)Nc3cc(Cl)ccc3C)cc2C)n1 [N-(5-chloro-2-methylphenyl)-N′-(3-methyl-4-((3-(2-(methylamino)-4-pyrimidinyl)-2-pyridinyl)oxy)phenyl)urea]
IC50: < 1 µM

COc1ccc(C2CCCCC2)cc1NC(=O)c1ccc(C)c(Oc2ncccc2-c2ncnc(NCCO)n2)c1 [N-(5-cyclohexyl-2-(methyloxy)phenyl)-3-((3-(4-((2-hydroxyethyl)amino)-1,3,5-triazin-2-yl)-2-pyridinyl)oxy)-4-methylbenzamide]
IC50: < 1 µM

COc1ccc(C2CCCCC2)cc1NC(=O)c1ccc(C)c(Oc2ncccc2-c2ncnc(NCCCCN(C)C)n2)c1 [N-(5-cyclohexyl-2-(methyloxy)phenyl)-3-((3-(4-((4-(dimethylamino)butyl)amino)-1,3,5-triazin-2-yl)-2-pyridinyl)oxy)-4-methylbenzamide]
IC50: < 1 µM

CCNc1ncnc(-c2cccnc2Oc2cc(C(=O)Nc3cc(C4CCCCC4)ccc3OC)ccc2C)n1 [N-(5-cyclohexyl-2-(methyloxy)phenyl)-3-((3-(4-(ethylamino)-1,3,5-triazin-2-yl)-2-pyridinyl)oxy)-4-methylbenzamide]
IC50: < 1 µM

CNc1cc(-c2cccnc2Oc2cc(C(=O)Nc3cc(C4CCCCC4)ccc3OC)ccc2C)ccn1 [N-(5-cyclohexyl-2-(methyloxy)phenyl)-4-methyl-3-((2′-(methylamino)-3,4′-bipyridin-2-yl)oxy)benzamide]
IC50: < 1 µM

CNc1nccc(-c2cccnc2Oc2cc(C(=O)Nc3cc(C4CCCCC4)ccc3OC)ccc2C)n1 [N-(5-cyclohexyl-2-(methyloxy)phenyl)-4-methyl-3-((3-(2-(methylamino)-4-pyrimidinyl)-2-pyridinyl)oxy)benzamide]
IC50: < 1 µM

CNc1ncnc(-c2cccnc2Oc2cc(C(=O)Nc3cc(C4CCCCC4)ccc3OC)ccc2C)n1 [N-(5-cyclohexyl-2-(methyloxy)phenyl)-4-methyl-3-((3-(4-(methylamino)-1,3,5-triazin-2-yl)-2-pyridinyl)oxy)benzamide]
IC50: < 1 µM

COc1ccc(C2CCCCC2)cc1NC(=O)c1ccc(C)c(Oc2ncccc2-c2ccncn2)c1 [N-(5-cyclohexyl-2-(methyloxy)phenyl)-4-methyl-3-((3-(4-pyrimidinyl)-2-pyridinyl)oxy)benzamide]
IC50: < 1 µM

CNc1nccc(-c2cccnc2Oc2ccc(F)c(C(=O)Nc3cc(C4CC4)ccc3N(C)CCCN(C)C)c2)n1 [N-(5-cyclopropyl-2-((3-(dimethylamino)propyl)(methyl)amino)phenyl)-2-fluoro-5-((3-(2-(methylamino)-4-pyrimidinyl)-2-pyridinyl)oxy)benzamide]
IC50: < 1 µM

Cc1ccc(C(=O)N[C@H](C)C2CCCCC2)cc1Nc1ncccc1-c1ccncn1 [N-((1R)-1-cyclohexylethyl)-4-methyl-3-((3-(4-pyrimidinyl)-2-pyridinyl)amino)benzamide]
IC50: < 1 µM

Reference: patent US8476434B2, “Protein kinase modulators and method of use” (Amgen Inc., priority 2004, dated 2013)
